5 compounds from ChEMBL document CHEMBL1201862, “PubChem BioAssay data set” (2004) can be followed below.

A short description of test [1]: growth inhibition of yeast DHODH-expressing 3D7 parasites – SYBR Green, dry powder samples, dose response (AID 1159570).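 Further: parasite growth measured after 72 hours of compound exposure.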 The class given is functional, cell-based.
The nature of test [2]: P. falciparum Dd2 growth inhibitors, dose response, SYBR Green, cherry-picked samples (AID 1159567). The class given is functional, cell-based.
A short description of test [3]: Dd2 malaria parasite growth inhibition potency – SYBR Green, dry powder samples, dose response (AID 1159566).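 Further: potency for growth inhibition with lower SYBR green DNA signal.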 The class given is functional, cell-based.
Test [4] is described as follows: Plasmodium falciparum Dd2 Sybr green parasite growth Measured in Cell-Based and Microorganism Combination System Using Plate Reader - 2153-01_Inhibitor_Dose_DryPowder_Activity_Set3. The class given is functional.
Test [5] can be described thus: growth inhibition of PfATP4-mutant resistant parasites – NITD609-resistant line, SYBR Green, dry powder, dose response (AID 1159571).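 Further: parasites synchronized at ring stage by sorbitol before testing.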 The class given is functional, cell-based.
Test [6] can be described thus: Dd2 parasite growth inhibition in erythrocytes – SYBR Green, dry powder samples, set 4, dose response (AID 1159572). The class given is functional, cell-based.
In test [7] the target is G-protein coupled receptor 183 (Homo sapiens, UniProt P32249). As to the kind of experiment: SAR confirmation of small molecule antagonists of the EBI2 receptor via a luminescent beta-arrestin assa. The class given is functional.
Test [8] in a line: Late stage results for the probe development effort to identify inhibitors of Plasmodium falciparum gametocytes: Luminescence-based cell-based high throughput dose response assay to identify inhibitors of viability of late stage Plasmodium falciparum gametocytes. The class given is functional.
Test [9] can be described thus: CellTiter-Glo luminescence survival assay, SW480 colon tumor line, concentration-response curve, half-maximal inhibitory concentration (AID 1117338). The class given is functional.
Test [10] is described as follows: RKO cell viability reduction, dose response, CellTiter-Glo luminescence (AID 1117322). The class given is functional.
Test [11] in a line: cytotoxicity toward HCT116 cells – cell-based, CellTiter-Glo luminescence, IC50, dose response (AID 1117332). The class given is functional. As to conditions: HCT-116.
Test [12] can be described thus: SNU-C1 cell viability reduction, dose response, CellTiter-Glo luminescence (AID 1117323). The class given is functional, cell-based.
The nature of test [13]: cytotoxicity toward Colo320 cells – cell-based, CellTiter-Glo luminescence, IC50, dose response (AID 1117334). The class given is functional. The conditions noted are these: COLO 320.
The nature of test [14]: cytotoxicity toward HT-29 cells – cell-based, CellTiter-Glo luminescence, IC50, dose response (AID 1117330). The class given is functional.
The nature of test [15]: Reduced DLD-1 viability, concentration-response, CellTiter-Glo luminescence (AID 1117352). The class given is functional.
Test [16] can be described thus: HCT116 cell viability decrease, GSK3B pretreatment – CellTiter-Glo, IC50, dose response (AID 1117339). The class given is functional. As to conditions: HCT-116.

The structures appear in SMILES notation. Active and inactive are the calls of the source.

G-protein coupled receptor 183, sequence (P32249 whole entry): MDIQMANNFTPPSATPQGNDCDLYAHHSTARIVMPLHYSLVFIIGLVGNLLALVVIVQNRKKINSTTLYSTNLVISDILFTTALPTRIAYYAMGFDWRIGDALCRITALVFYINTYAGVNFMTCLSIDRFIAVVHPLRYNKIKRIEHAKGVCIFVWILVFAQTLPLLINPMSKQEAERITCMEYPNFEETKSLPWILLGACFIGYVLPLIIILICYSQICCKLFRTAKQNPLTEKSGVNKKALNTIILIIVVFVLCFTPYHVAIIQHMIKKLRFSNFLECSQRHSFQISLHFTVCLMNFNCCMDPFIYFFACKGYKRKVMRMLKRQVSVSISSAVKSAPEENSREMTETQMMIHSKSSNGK

As to `N#C[C@H]1[C@@H](c2ccc(C#CC3CCCC3)cc2)[C@@H](CO)N1S(=O)(=O)Cc1ccccc1`, the AC50 in [1] was 2.06 µM (active); in [2], 2.73 µM (active); in test [3], 0.982 µM (active); in test [4], 3.05 µM (active); in test [5], 3.23 µM (active).
With `COc1ccc2c3c([nH]c2c1)[C@H](CO)N(C(C)=O)CC31CCN(C(=O)CN2CCOCC2)CC1`, in [6], the concentration at half-maximal activity (AC50) is 2.59 µM (active).
As for `CC(C)c1ccc(CN2CCN(C(=O)/C=C/c3ccc(Br)cc3)CC2)cc1`, the IC50 in [7] was 0.00592 µM (active).
On to `O=C(Nc1nccs1)c1cn(-c2ccccc2)nc1-c1ccc(F)cc1`, for which the IC50 in test [8] is > 74.4 µM (inactive).
As to `CCCCCCCC(=O)OCC(COC(=O)CCCCCCC)OC(=O)CCCCCCC` [TRICAPRILIN], the IC50 in test [9], in test [10], in test [11], in test [12], in [13] and in test [14] was > 20 µM (inactive) throughout. The IC50 in test [15] and in test [16] was > 20 µM (inactive) throughout.
